Assay [1] relates to TNF-α. In words: Cytokine release assay in hPBMCs: TNF-α. The assay is classed as cell-based. The settings on record: Homo sapiens; Table 3: PHA-PMA induced hPBMC's, 48 h; read-out: TNF-α IC50. Here is the method: (§1) hPBMCs were obtained from healthy donors by centrifugation of heparinized venous blood over Ficoll/Hypaque solution (Histopaque-1077, Sigma, USA). Isolated hPBMCs were suspended in RPMI 1640 culture medium supplemented with 10% FBS and seeded at a density of 50,000 cells/well in a 96-well plate (Nunc, USA). The cells were incubated at 37° C., 5% CO2 for a period of 24 h. These cells were used for the lymphocyte proliferation as well as cytokine release assay.
(§2) The plated cells were treated with different concentrations of the test compound (prepared as mM stock in DMSO and diluted with DMSO to achieve the following final concentrations in the assay: 100, 10, 1, 0.1, 0.01, 0.001, 0.0001, 0.00001 and 0.000001 μM) and incubated for 30 min. The cells were then stimulated with PHA (prepared as 1 mg/mL stock in RPMI 1640 culture medium and used at a final concentration of 5 μg/mL). FK506 was used as a standard. The plates were incubated at 37° C., 5% CO2 for 48 h. The cytokines in the supernatant collected were detected using ELISA kit (BD biosciences, USA). The cytokines evaluated in the assay were TNF-α, IL-2, IL-6, and IFN-γ.

Assay [2] deals with IL-6. In words: Screening in LPS stimulated THP-1 cells: IL-6. The assay is classed as cell-based. The settings on record: Homo sapiens, 24 h, ELISA. Here is the method:
(§3) IL-6 (BD Biosciences, USA) production by LPS (Escherchia coli 0127:B8, Sigma, USA) in THP-1 cells (ATCC number: TIB202) was designed as in reference, Journal of Immunology, 151, 5631-5638, (1993), the disclosure of which is incorporated by reference for the teaching of the assay.
(§4) THP-1 cells were cultured in RPMI 1640 culture medium (Gibco BRL, UK) containing 100 U/mL penicillin and […] streptomycin, (100× solution, Sigma, USA) containing 10% FBS (JRH Biosciences, USA). 25,000 cells were seeded per well in 96-well plate (Nunc, USA). The cells were differentiated with PMA (Sigma, USA, prepared as 100 μg/mL stock in RPMI and was diluted to 5 ng/mL). The test compound (prepared as 20 mM stock in DMSO and diluted with DMSO to achieve the following final concentrations in the assay: 100, 10, 1, 0.1, 0.01, 0.001 and 0.0001 μM) or vehicle (0.5% DMSO) were added to the cells and the cells were incubated for 30 min at 37° C. LPS (Sigma, USA, prepared as 1 mg/mL stock in PBS) was added to achieve a final concentration of 1 μg/mL. Plates were incubated at 37° C. for 24 h at 5% CO2. Supernatants were harvested, and assayed for TNF-α and IL-6 by ELISA as described by the manufacturer (BD Biosciences, USA). Percent inhibition of cytokine release compared to the control was calculated. The IC50 values were calculated by a nonlinear regression method.

In the next assay the test system is IL-2. In words: Cytokine release assay in hPBMCs: IL-2. The settings on record: Homo sapiens; Table 3: PHA-PMA induced hPBMC's, 48 h; read-out: IL-2 IC50. In kind it is cell-based. On the procedure:
as §1, §2

Assay [3] relates to IL-6. In words: Cytokine release assay in hPBMCs: IL-6. The assay is classed as cell-based. The settings on record: Homo sapiens; Table 3: PHA-PMA induced hPBMC's, 48 h; read-out: IL-6 IC50. Here is the method: as §1, §2
In assay [4] the test system is TNF-α. Nature of the assay: Screening in LPS stimulated THP-1 cells: TNF-α. In kind it is cell-based. The settings on record: Homo sapiens, 24 h, ELISA. On the procedure:
as §3, §4

The test system of another assay is IFN-γ. In words: Cytokine release assay in hPBMCs: IFN-γ. The settings on record: Homo sapiens; Table 3: PHA-PMA induced hPBMC's, 48 h; read-out: IFN-γ IC50. The assay is classed as cell-based. Here is the method: as §1, §2
Assay [5] deals with IL-6. Nature of the assay: Human monocyte assay (LPS-induced): IL-6. The assay is classed as cell-based. The settings on record: LPS stimulated human monocytes, 5 h. The text has this: The assay was designed as in reference, Physiological Research, 52, 593-598, (2003), the disclosure of which is incorporated by reference for the teaching of the assay.
The objective of the assay is to determine whether compounds of the present invention—mediated inhibition of LPS-induced cytokines from monocytic THP-1 cell line translates to physiologically relevant human cells. Accordingly, the effect of compounds of the present invention on LPS—induced cytokine production from freshly isolated human monocytes was ascertained.
Peripheral blood was collected from healthy donors into potassium EDTA vacutainer tubes (BD Biosciences, USA). hPBMCs were isolated using density gradient separation (Histopaque-1077; Sigma, USA) and suspended in assay medium which is RPMI culture medium (Sigma, USA) containing 10% heat inactivated FBS (JRH Biosciences, Australia), 100 U/mL penicillin (Sigma, USA) and […] streptomycin (Sigma, USA). Monocytes in the hPBMCs were counted using a Coulter Counter following which the cells were resuspended at 2×10^5 monocytes/mL of assay medium. A cell suspension containing 2×10^4 monocytes was aliquoted per well of a 96-well plate (Nunc, USA). Subsequently, the hPBMCs were incubated for 4-5 h at 37° C., 5% CO2. During the incubation, the monocytes adhered to the bottom of 96-well plate. Following the incubation, the non-adherent lymphocytes were washed and assay medium was added to adherent monocytes. After 48 h of incubation at 37° C., 5% CO2, monocytes were pre-treated with various concentrations of test compound (prepared as 20 mM stock in DMSO; 1 μL of […] concentrated solution of test compound was dissolved in 200 μL cell suspension to achieve a final concentration of 0.03, 0.1, 0.3, 1, 3, 10, 30 and 100 μM) or vehicle (0.5% DMSO) or 10 μM dexamethasone (standard IL-6 and TNF-α inhibitor, Sigma, USA) for 30 min at 37° C., 5% CO2 and stimulated with 1 μg/mL LPS (Escherchia coli 0111:B4, Sigma, USA). The cells were then incubated for 5 h at 37° C., 5% CO2 following which supernatants were collected, stored at −70° C. and were assayed later for IL-6, and TNF-α by ELISA (OptiEIA ELISA sets, BD Biosciences, USA). The IC50 values were calculated by a nonlinear regression method using Graph Pad software (Prism 3.03).

In assay [6] the test system is DBA/1J mice with collagen induced arthritis. In words: Collagen-induced arthritis in mice. The settings on record: compound of example 7 5 mg/kg, s.c., n=10; Enbrel 3 mg/kg, s.c., n=6; vehicle control 15.14+1.0. In kind it is in vivo. Here is the method:
The experiment was designed as in reference, J. Experimental Medicine, 162, 637-646 (1985), the disclosure of which is incorporated by reference for the teaching of the experiment.
Male DBA/1J mice with body weight range of 18-22 g, aged 8-10 weeks were immunized with an emulsion equivalent to 200 μg of type II collagen (Elastin products, USA) in Freund's Complete Adjuvant (Sigma, USA), injected intradermally at the base of the tail. The animals were boosted with 200 μg of freshly prepared typeII collagen emulsion emulsified in Freund's Complete Adjuant (Sigma, USA) on day 21. A group of naïve mice was also maintained alongside. Naïve animals are the animals which are neither immunized for induction of arthritis nor do they receive any treatment. This group is maintained to take care of the normal changes in the paw thickness with age.
From day 23, mice were examined daily once for the signs of rheumatoid arthritis, using the articular index and paw thickness as parameters. Articular index scoring was performed employing the following criteria:
• 0: No redness or swelling • 1: Redness, but no swelling • 2: Redness and swelling of the paw • 3: Redness and severe swelling of the paw Hind limbs: Scale 0-4 • 0: No redness or swelling • 1: Redness and mild swelling of paw • 2: Redness and moderate swelling of paw and/or swelling of at least one of the digits • 3: Redness and moderate/severe swelling of paw, swelling of ankle joint and/or swelling of one or more digits • 4: Redness and severe swelling of paw, digits and ankle joint, with joint stiffness Mice with a minimum hind paw score of 2, of even one paw, were inducted into the study. Mice were randomized into the various study groups, each group having at least eight animals, and were administered the vehicle (0.5% CMC, 10 mL/kg p.o. and s.c. twice daily), the test compound (5 mg/kg, p.o. and s.c., twice daily) and standard compound Enbrel (Wyeth Limited, UK), 3 mg/kg, s.c., once daily. The test compound was administered as a suspension in CMC. The requisite quantity of the compound was accurately weighed and was hand-pulverized using pestle-mortar. After mixing with minimum quantity of Tween 80 necessary to wet the compound, requisite quantity of 0.5% CMC solution was added and the compound was ground with CMC till the uniform suspension was obtained. Standard compound ‘Enbrel’ was used as an aqueous solution. The dosing of the compounds was done for 12 continuous days.
The following parameters were observed and recorded daily, • 1. Body weight • 2. Articular index • 3. Paw thickness of hind limbs only, in mm using a tension free calipers • 4. Any significant observation regarding the condition of the animals.
On 13th day morning, 1 h after the compound treatment, the animals were sacrificed, blood withdrawn, and plasma collected for drug level analyses. Also, the hind limbs of all the animals were preserved for histopathological evaluations.

In the case of `C/C=C/C(O)C(C)/C=C/C(=NOCC(=O)O)C(C)C(O)C(C)C1OC(=O)/C(OC)=C/C(C)=C/C(C)C(O)C(CC)C(O)C(C)C/C(C)=C/C=C/C1OC` (stereo in doubt) [Compound of example 10, ((Z)-((6E,10E)-2-((4E,6E,14E,16Z)-11-Ethyl-10,12-dihydroxy-3,17-dimethoxy-7,9,13,15-tetramethyl-18-oxooxacyclooctadeca-4,6,14,16-tetraen-2-yl)-3,9-dihydroxy-4,8-dimethyldodeca-6,10-dien-5-ylidene)aminooxy)acetic acid], the concentration for half-maximal inhibition (IC50) in the assay with TNF-α [1] was 0.2 µM; with IL-6 [2], 2.3 µM; in the assay on IL-2, 0.2 µM; with IL-6 [3] it was 0.02 µM; in the assay with TNF-α [4], more than 30 µM; with IFN-γ, 2 µM.

For `C/C=C/C(O)C(C)/C=C/C(=NOCC(=O)N1CCN(C)CC1)C(C)C(O)C(C)C1OC(=O)/C(OC)=C/C(C)=C/C(C)C(O)C(CC)C(O)C(C)C/C(C)=C/C=C/C1OC` (stereo in doubt) [Compound of example 11, (3Z,5E,13E,15E)-18-((5Z,6E,10E)-3,9-Dihydroxy-4,8-dimethyl-5-(2-(4-methylpiperazin-1-yl)-2-oxoethoxyimino)dodeca-6,10-dien-2-yl)-9-ethyl-8,10-dihydroxy-3,17-dimethoxy-5,7,11,13-tetramethyloxacyclooctadeca-3,5,13,15-tetraen-2-one], the IC50 in the assay with TNF-α [1] is 0.05 µM; in the assay on IL-6 [5], more than 10 µM; with IL-6 [2] it was 0.3 µM; with IL-2 it was 0.05 µM; in the assay on IL-6 [3], 0.01 µM; with TNF-α [4], more than 30 µM. In addition, the IC50 in the assay on IFN-γ came out at 5 µM.

`C/C=C/C(O)C(C)/C=C/C(=NOCC(=O)N1CCCCC1)C(C)C(O)C(C)C1OC(=O)/C(OC)=C/C(C)=C/C(C)C(O)C(CC)C(O)C(C)C/C(C)=C/C=C/C1OC` (stereo in doubt) [Compound of example 13, (3Z,5E,13E,15E)-18-((5Z,6E,10E)-3,9-Dihydroxy-4,8-dimethyl-5-(2-oxo-2-(piperidin-1-yl)ethoxyimino)dodeca-6,10-dien-2-yl)-9-ethyl-8,10-dihydroxy-3,17-dimethoxy-5,7,11,13-tetramethyloxacyclooctadeca-3,5,13,15-tetraen-2-one]: the IC50 in the assay on TNF-α [1] was 0.02 µM; in the assay on IL-6 [5], 1.4 µM; in the assay with IL-6 [2] it was 0.2 µM; in the assay with IL-2, 0.2 µM; in the assay with IL-6 [3], 0.5 µM; in the assay with TNF-α [4], more than 30 µM. The IC50 in the assay with IFN-γ stood at 10 µM.

For `C/C=C/C(O)C(C)/C=C/C(=NOCC(=O)N1CCC(N2CCCCC2)CC1)C(C)C(O)C(C)C1OC(=O)/C(OC)=C/C(C)=C/C(C)C(O)C(CC)C(O)C(C)C/C(C)=C/C=C/C1OC` (stereo in doubt) [Compound of example 14, (3Z,5E,13E,15E)-18-((5Z,6E,10E)-5-(2-(1,4′-Bipiperidin-1′-yl)-2-oxoethoxyimino)-3,9-dihydroxy-4,8-dimethyldodeca-6,10-dien-2-yl)-9-ethyl-8,10-dihydroxy-3,17-dimethoxy-5,7,11,13-tetramethyloxacyclooctadeca-3,5,13,15-tetraen-2-one], the IC50 in the assay with TNF-α [1] was determined as 0.02 µM; in the assay with IL-6 [5], 0.15 µM; with IL-6 [2] it was 0.13 µM; in the assay on IL-2, 0.005 µM; in the assay with IL-6 [3] it was 0.01 µM; with TNF-α [4] it was 18 µM. Also, in the assay with IFN-γ, the 50% inhibitory concentration (IC50) is 0.02 µM.

`C/C=C/C(O)C(C)/C=C/C(=O)NC(C)C(O)C(C)C1OC(=O)/C(OC)=C/C(C)=C/C(C)C(O)C(CC)C(O)C(C)C/C(C)=C/C=C/C1OC` (stereo not drawn) [Compound of example 16, (2E,6E)-N-(4-((4E,6E,14E,16Z)-11-Ethyl-10,12-dihydroxy-3,17-dimethoxy-7,9,13,15-tetramethyl-18-oxooxacyclooctadeca-4,6,14,16-tetraen-2-yl)-3-hydroxypentan-2-yl)-5-hydroxy-4-methylocta-2,6-dienamide]: the IC50 is 0.03 µM with IL-6 [2] and more than 100 µM with TNF-α [4].

Take Enbrel: the “Histological score of the section of paws” value in assay [6] was 5.8+0.95.
